Assay results reported in patent US5968910A, “Compositions containing two or three inhibitors of different HIV reverse transcriptases” (priority 1994, dated 1999).
Converted amounts (≈) assume the structure as drawn. Like-named read-outs stand apart in the source and are kept apart here.

Tests used:
[1] = test system: HIV-1/TIBO R82150 (100-Ile); test: Sensitivity of mutant HIV-1 strain in CEM cell cultures; type: cell-based; conditions: CEM cells, Table 1
How it was run: (§1)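 Infect CEM cells (250,000 cells per ml) with virus at 100 CCID50/ml; add infected suspension to wells holding diluted compound; incubate 4 days, 37° C.; examine for syncytia.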

[2] = test system: HIV-1/TSAO-m^3 T (138-Lys); test: as above; type: cell-based; conditions: CEM cells, Table 1
How it was run: as §1

HIV-1/IV(0.1) 103-Thr = test: as above; type: cell-based; conditions: Table 5
How it was run: as §1

HIV-1/I(0.1) 103-Asn = test: as above; type: cell-based; conditions: Table 5
How it was run: as §1

HIV-1/II(0.1) 100-Ile = test: as above; type: cell-based; conditions: Table 5
How it was run: as §1

HIV-1/V(0.5) 103-Asn = test: as above; type: cell-based
How it was run: as §1

HIV-1/B 101Glu = test: as above; type: cell-based; conditions: Table 5
How it was run: as §1

HIV-1/Nev (106-Ala) = test: as above; type: cell-based; conditions: CEM cells, Table 1
How it was run: as §1

HIV-1/III(0.1) 103-Asn = test: as above; type: cell-based; conditions: Table 5
How it was run: as §1

[3] = test system: HIV-1/TIBO R82913 (103-Asn); test: as above; type: cell-based; conditions: CEM cells, Table 1
How it was run: as §1

HIV-1/Pyr (181-Cys) = test: as above; type: cell-based; conditions: CEM cells, Table 1
How it was run: as §1

[4] = test system: HIV-1/V(0.1) 101-Ile + 141-Glu; test: as above; type: cell-based; conditions: Table 5
How it was run: as §1

HIV-1(IIIB) (WT) = test: microbe, parasite or virus in culture; type: cell-based; conditions: Human immunodeficiency virus 1, IIIB, CCRF-CEM
How it was run: as §1

HIV-1 RT (WT) = HIV-1 RT (WT) (Human immunodeficiency virus type 1 group M subtype B, UniProt P03366); test: biochemical; conditions: IC50, anti-HIV-1 RT (WT) activity
How it was run: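 Inhibition read as reduced incorporation of [2,8-³H]dGTP (2.95 μM) into acid-precipitable product on a poly(C).oligo(dG) template/primer (0.1 mM). Recombinant RT, test compounds in 5-fold dilutions; 30 min, 37° C, pH 7.8 Tris buffer with 5 mM Mg2+, 150 mM KCl.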

Question: How did the “50% Effective Concentration” value [1] turn out when `Cc1cn([C@@H]2O[C@H](CO[Si](C)(C)C(C)(C)C)[C@@]3(OS(=O)(=O)C=C3N)[C@H]2O[Si](C)(C)C(C)(C)C)c(=O)n(C)c1=O` [TSAO-m^3 T] was run?
Answer: The value was 0.05 µg/mL.

Question: And the “50% Effective Concentration” value [2]?
Answer: Its value is > 50 µg/mL.

Question: And the EC50 (HIV-1/IV(0.1) 103-Thr)?
Answer: The EC50 was 0.30 µg/mL (≈ 0.497 µM).

Question: What about the EC50 (HIV-1/I(0.1) 103-Asn) of the same compound?
Answer: The EC50 was 0.22 µg/mL (≈ 0.364 µM).

Question: What about the EC50 (HIV-1/II(0.1) 100-Ile) of the same compound?
Answer: Its EC50 is 0.37 µg/mL (≈ 0.613 µM).

Question: And the EC50 (HIV-1/V(0.5) 103-Asn; Table 5)?
Answer: The EC50 was 0.30 µg/mL (≈ 0.497 µM).

Question: What about the “fold more inhibitory to HIV-1/III(0.1) than to HIV-1/V(0.5)” value (HIV-1/V(0.5) 103-Asn; both RT/103-Asn mutants) of the same compound?
Answer: Its value is “equally inhibitory to both virus mutants”.

Question: And the EC50 (HIV-1/B 101Glu)?
Answer: Its EC50 is > 2.5 µg/mL.

Question: What about the “50% Effective Concentration” value (HIV-1/Nev (106-Ala)) of the same compound?
Answer: The value was > 50 µg/mL.

Question: What about the EC50 (HIV-1/III(0.1) 103-Asn) of the same compound?
Answer: The EC50 was 0.20 µg/mL (≈ 0.331 µM).

Question: What about the “50% Effective Concentration” value [3] of the same compound?
Answer: The value was 0.15 µg/mL.

Question: What about the “50% Effective Concentration” value (HIV-1/Pyr (181-Cys)) of the same compound?
Answer: Its value is 3.0 µg/mL.

Question: What about the EC50 [4] of the same compound?
Answer: Its EC50 is 0.06 µg/mL (≈ 0.0994 µM).

Question: And the EC50 (HIV-1(IIIB) (WT); CEM cells, Table 1, read-out: 50% Effective Concentration)?
Answer: The EC50 was 0.03 µg/mL (≈ 0.0497 µM).

Question: What about the EC50 (HIV-1(IIIB) (WT); HIV-1 (III8), Table 5, read-out: EC50) of the same compound?
Answer: Its EC50 is 0.03 µg/mL (≈ 0.0497 µM).

Question: And the IC50 (HIV-1 RT (WT))?
Answer: Its IC50 is 4.6 µM.
